The structures appear in SMILES notation. Active and inactive are the calls of the source. The rule behind the calls is not given here.

Data set [1] concerns Mus musculus. The data set is described as follows: Antiepileptic activity in ip dosed Swiss albino mouse assessed as dose required to protect against subcutaneous pentylenetetrazol-induced clonic seizures after 0.5 hrs. The data set is classed as functional. Conditions: read-out: MED.
For data set [2], the system named is Mus musculus. The data set is described as follows: Neurotoxicity in ip dosed Swiss albino mouse assessed as minimal motor impairment at 300 mg/kg, ip after 4 hrs by rotarod test. The data set is classed as toxicity, organism-based. Also on record: dose 300 mg/kg, route intraperitoneal. Conditions: in vivo.
The test system of data set [3] is Rattus norvegicus. The data set is described as follows: Antiepileptic activity in Wistar rat assessed as protection against maximum electric shock-induced seizure at 30 mg/kg, po after 1 hr. The data set is classed as functional.
Data set [4] concerns Mus musculus. The data set is described as follows: Antiepileptic activity in ip dosed Swiss albino mouse assessed as dose required to protect against maximum electric shock-induced seizure after 0.5 hrs. Conditions: read-out: MED. The data set is classed as functional.
Data set [5] has as its system Mus musculus. The data set is described as follows: Antiepileptic activity in ip dosed Swiss albino mouse assessed as dose required to protect against subcutaneous pentylenetetrazol-induced clonic seizures after 4 hrs. The data set is classed as functional. Conditions: read-out: MED.
Data set [6] deals with Rattus norvegicus. The experiment in a line: Antiepileptic activity in Wistar rat assessed as protection against maximum electric shock-induced seizure at 30 mg/kg, po after 0.5 hrs. The data set is classed as functional.
The subject of data set [7] is Rattus norvegicus. The data set is described as follows: Neurotoxicity in Wistar rat assessed as minimal motor impairment at 30 mg/kg, po by rotarod method. The class given is toxicity, organism-based. Also on record: dose 30 mg/kg, route oral. Conditions: in vivo.
The test system of data set [8] is Rattus norvegicus. The experiment in a line: Antiepileptic activity in Wistar rat assessed as protection against maximum electric shock-induced seizure at 30 mg/kg, po after 2 hrs. The class given is functional.
Data set [9] has as its system Mus musculus. The experiment in a line: Antiepileptic activity in ip dosed Swiss albino mouse assessed as dose required to protect against maximum electric shock-induced seizure after 4 hrs. The data set is classed as functional. Conditions: read-out: MED.
Data set [10] relates to Rattus norvegicus. The data set is described as follows: Antiepileptic activity in Wistar rat assessed as protection against maximum electric shock-induced seizure at 30 mg/kg, po after 0.25 hrs. The class given is functional.
For data set [11], the system named is Mus musculus. The data set is described as follows: Neurotoxicity in ip dosed Swiss albino mouse assessed as dose required for minimal motor impairment after 0.5 hrs by rotarod test. Conditions: in vivo. The class given is toxicity, organism-based.
For data set [12], the system named is Rattus norvegicus. The data set is described as follows: Antiepileptic activity in Wistar rat assessed as protection against maximum electric shock-induced seizure at 30 mg/kg, po after 4 hrs. The class given is functional.
Data set [13] concerns Mus musculus. The data set is described as follows: Neurotoxicity in Swiss albino mouse assessed as minimal motor impairment at 300 mg/kg, ip after 0.5 hrs by rotarod test. The data set is classed as toxicity, organism-based. Also on record: dose 300 mg/kg, route intraperitoneal. Conditions: in vivo.
Data set [14] relates to Mus musculus. The data set is described as follows: Antiepileptic activity in ip dosed Swiss albino mouse assessed as protection against subcutaneous pentylenetetrazol-induced clonic seizures at 300 mg/kg, ip after 4 hrs. On the set-up: dose 300 mg/kg. The data set is classed as functional, organism-based.
Data set [15] concerns Mus musculus. The data set is described as follows: Neurotoxicity in ip dosed Swiss albino mouse assessed as dose required for minimal motor impairment after 4 hrs by rotarod test. The data set is classed as toxicity, organism-based. Conditions: in vivo.
Data set [16] has as its system Mus musculus. The experiment in a line: Antiepileptic activity in ip dosed Swiss albino mouse assessed as protection against subcutaneous pentylenetetrazol-induced clonic seizures at 300 mg/kg, ip after 0.5 hrs. Also on record: dose 300 mg/kg. The data set is classed as functional, organism-based.
Data set [17] deals with Mus musculus. The experiment in a line: Antiepileptic activity in Swiss albino mouse assessed as protection against maximum electric shock-induced seizure at 300 mg/kg, ip after 4 hrs. The data set is classed as functional, organism-based. Also on record: dose 300 mg/kg.
The test system of data set [18] is Mus musculus. The experiment in a line: Antiepileptic activity in Swiss albino mouse assessed as protection against maximum electric shock-induced seizure at 300 mg/kg, ip after 0.5 hrs. The class given is functional, organism-based. On the set-up: dose 300 mg/kg.

For the molecule `O=C(/N=C/c1ccc(F)cc1)Nc1ccc2c(c1)C(=O)C(=O)N2CN1CCOCC1`, the minimal effective dose in data set [1] is 100 mg/kg; in [4] it was 30 mg/kg; in data set [5], 300 mg/kg; in data set [9], 100 mg/kg. Further, the Activity result in [2] was “Non-toxic”; in data set [3], 50%; in [6] it was 50%; in data set [7], “Non-toxic”; in data set [8] it was 100%; in [10], 25%. The Activity in data set [12] is 100%. For the same molecule, the MTC in data set [11] was found to be 300 mg/kg.
As for `O=C(/N=C/c1ccc(Cl)cc1)Nc1ccc2c(c1)C(=O)C(=O)N2CN1CCCCC1`, in data set [13], the Activity entry was “Non-toxic”. In addition, the minimal effective dose in data set [1] stood at 300 mg/kg; in data set [4], 100 mg/kg; in data set [9], 300 mg/kg. Moreover, the outcome in data set [14] was inactive. For the same molecule, the MTC in data set [15] came out at 300 mg/kg.
Take `O=C(/N=C/c1ccc(Br)cc1)Nc1ccc2c(c1)C(=O)C(=O)N2CN1CCCCC1`: the Activity in [3] is recorded as 50%; in data set [6], 50%; in data set [7], “Non-toxic”; in data set [8], 100%; in data set [10], 25%; in data set [12], 100%. The results for the minimal effective dose in data set [4], in data set [5] and in data set [9] were 30 mg/kg, 300 mg/kg and 300 mg/kg, respectively. Further, the result in [16] was inactive. Also, the MTC was 300 mg/kg in [15] and 100 mg/kg in [11].
Turning to `O=C(/N=C/c1ccc(Br)cc1)Nc1ccc2c(c1)C(=O)C(=O)N2CN1CCOCC1`, the Activity entry in data set [13] and in data set [2] was “Non-toxic” in each case. The minimal effective dose in data set [1] was 300 mg/kg; in [4], 100 mg/kg; in data set [9], 300 mg/kg. The result in data set [14] was inactive.
Turning to `O=C(/N=C/c1ccc([N+](=O)[O-])cc1)Nc1ccc2c(c1)C(=O)C(=O)N2CN1CCCCC1`, the minimal effective dose in data set [1] was 300 mg/kg; in [4], 30 mg/kg; in [5], 300 mg/kg; in data set [9], 100 mg/kg. Besides, the Activity in data set [3] is on record as 25%; in [6] it was 50%; in data set [7] it was “Non-toxic”; in [8], 0%; in data set [10], 0%; in data set [12], 0%. Moreover, the MTC in data set [15] and in data set [11] was 300 mg/kg in each case.
`CCC1(C)CC(=O)NC1=O` (centres undefined) [ETHOSUXIMIDE]: the Activity result in data set [13] and in [2] was “Non-toxic” each time. The minimal effective dose was determined as 100 mg/kg in [1] and 300 mg/kg in [5]. Further, the result in data set [17] and in [18] was inactive.
For `COc1ccc(/C=N/C(=O)Nc2ccc3c(c2)C(=O)C(=O)N3CN2CCOCC2)cc1`, in [5], the minimal effective dose is 300 mg/kg. For the same molecule, the result in data set [17], in data set [16] and in [18] was inactive. Further, the MTC in data set [15] and in [11] was 300 mg/kg in each case.
In the case of `O=C(/N=C/c1ccccc1)Nc1ccc2c(c1)C(=O)C(=O)N2CN1CCOCC1`, the outcome in data set [14], in data set [16] and in [18] was inactive. In data set [9], the minimal effective dose stood at 300 mg/kg.
As to `O=C1NC(=O)C(c2ccccc2)(c2ccccc2)N1` [PHENYTOIN], the result in [14] and in [16] was inactive. In addition, the Activity in [3] is recorded as 75%; in data set [6] it was 100%; in data set [7] it was “Non-toxic”; in [8], 75%; in [10] it was 25%; in data set [12], 75%. The minimal effective dose in [4] and in data set [9] was 30 mg/kg each time. Also, the MTC in data set [15] and in data set [11] was 100 mg/kg throughout.
For `O=C(/N=C/c1ccccc1Cl)Nc1ccc2c(c1)C(=O)C(=O)N2CN1CCCCC1`, the minimal effective dose in [1] was 300 mg/kg; in data set [4], 100 mg/kg; in data set [9] it was 300 mg/kg. For the same molecule, the outcome in [14] was inactive. For the same molecule, the MTC was 300 mg/kg in data set [15] and 100 mg/kg in data set [11].
For the molecule `Cc1ccc(/C=N/C(=O)Nc2ccc3c(c2)C(=O)C(=O)N3CN2CCCCC2)cc1`, the minimal effective dose in [1] was determined as 300 mg/kg. The result in data set [14], in data set [17] and in data set [18] was inactive.
For `O=C(/N=C/c1ccc(O)cc1)Nc1ccc2c(c1)C(=O)C(=O)N2CN1CCCCC1`, the Activity entry in [13] and in data set [2] was “Non-toxic” in each case. Moreover, the minimal effective dose in data set [4] and in data set [5] was 300 mg/kg each time. Also, the result in [17] and in data set [16] was inactive.
As for `O=C(/N=C/c1ccc(Cl)cc1)Nc1ccc2c(c1)C(=O)C(=O)N2CN1CCOCC1`, the Activity result in data set [13] is on record as “Non-toxic”; in data set [2], “Non-toxic”; in [3], 50%; in data set [6], 50%; in data set [7], “Non-toxic”; in data set [8], 100%. For the same molecule, the values for the Activity in data set [10] and in [12] were 25% and 100%, respectively. Further, the minimal effective dose in data set [1] worked out at 300 mg/kg; in data set [4] it was 30 mg/kg; in data set [5], 300 mg/kg; in [9], 100 mg/kg.
As for `COc1ccc(/C=N/C(=O)Nc2ccc3c(c2)C(=O)C(=O)N3CN2CCCCC2)cc1`, the minimal effective dose in data set [1] and in data set [9] was 300 mg/kg in each case. Moreover, the outcome in data set [14] and in data set [18] was inactive.
Regarding `O=C(/N=C/c1ccccc1Cl)Nc1ccc2c(c1)C(=O)C(=O)N2CN1CCOCC1`, the minimal effective dose in data set [1] was found to be 300 mg/kg; in data set [4], 100 mg/kg; in data set [9], 300 mg/kg. In addition, in data set [14], the outcome was inactive. Further, the Activity result in data set [2] is reported as “Non-toxic”. The MTC in data set [11] came to 300 mg/kg.
In the case of `O=C(/N=C/c1cccc([N+](=O)[O-])c1)Nc1ccc2c(c1)C(=O)C(=O)N2CN1CCCCC1`, the minimal effective dose in [5] is 300 mg/kg. In addition, the outcome in data set [17], in data set [16] and in data set [18] was inactive.
Turning to `O=C(/N=C/c1ccc(F)cc1)Nc1ccc2c(c1)C(=O)C(=O)N2CN1CCCCC1`, the minimal effective dose in data set [1] came out at 100 mg/kg; in data set [4], 100 mg/kg; in data set [9], 300 mg/kg. The result in data set [14] was inactive. The MTC in data set [15] and in data set [11] was 300 mg/kg each time.
As for `Cc1ccc(/C=N/C(=O)Nc2ccc3c(c2)C(=O)C(=O)N3CN2CCOCC2)cc1`, the Activity entry in data set [13] and in [2] was “Non-toxic” throughout. In addition, the minimal effective dose in [4] and in data set [5] was 300 mg/kg throughout. Besides, the result in data set [17] and in data set [16] was inactive.
Regarding `O=C(/N=C/c1cccc([N+](=O)[O-])c1)Nc1ccc2c(c1)C(=O)C(=O)N2CN1CCOCC1`, the outcome in [14], in [16] and in data set [18] was inactive. Also, the minimal effective dose in data set [9] was determined as 300 mg/kg.
With `O=C(/N=C/c1ccccc1)Nc1ccc2c(c1)C(=O)C(=O)N2CN1CCCCC1`, the minimal effective dose in data set [1] came to 300 mg/kg. Moreover, the result in data set [14], in data set [17] and in data set [18] was inactive.
Consider `O=C(/N=C/c1ccc([N+](=O)[O-])cc1)Nc1ccc2c(c1)C(=O)C(=O)N2CN1CCOCC1`, for which the Activity result in data set [13] and in data set [2] was “Non-toxic” each time. Also, the minimal effective dose was 100 mg/kg in data set [4] and 300 mg/kg in data set [5]. The result in [17] and in data set [16] was inactive.
